Laboratory results from ChEMBL document CHEMBL1201862, “PubChem BioAssay data set” (2004).
The source made the active and inactive calls.

What was measured:
[1] = molecular target: T1, Insulin-degrading enzyme (Homo sapiens, UniProt P14735); assay: recombinant IDE activation, cell-free – biochemical, fluorescence polarization, counter-screen for IDE activator project, dose response (AID 588681)
T1 sequence (P14735 whole entry): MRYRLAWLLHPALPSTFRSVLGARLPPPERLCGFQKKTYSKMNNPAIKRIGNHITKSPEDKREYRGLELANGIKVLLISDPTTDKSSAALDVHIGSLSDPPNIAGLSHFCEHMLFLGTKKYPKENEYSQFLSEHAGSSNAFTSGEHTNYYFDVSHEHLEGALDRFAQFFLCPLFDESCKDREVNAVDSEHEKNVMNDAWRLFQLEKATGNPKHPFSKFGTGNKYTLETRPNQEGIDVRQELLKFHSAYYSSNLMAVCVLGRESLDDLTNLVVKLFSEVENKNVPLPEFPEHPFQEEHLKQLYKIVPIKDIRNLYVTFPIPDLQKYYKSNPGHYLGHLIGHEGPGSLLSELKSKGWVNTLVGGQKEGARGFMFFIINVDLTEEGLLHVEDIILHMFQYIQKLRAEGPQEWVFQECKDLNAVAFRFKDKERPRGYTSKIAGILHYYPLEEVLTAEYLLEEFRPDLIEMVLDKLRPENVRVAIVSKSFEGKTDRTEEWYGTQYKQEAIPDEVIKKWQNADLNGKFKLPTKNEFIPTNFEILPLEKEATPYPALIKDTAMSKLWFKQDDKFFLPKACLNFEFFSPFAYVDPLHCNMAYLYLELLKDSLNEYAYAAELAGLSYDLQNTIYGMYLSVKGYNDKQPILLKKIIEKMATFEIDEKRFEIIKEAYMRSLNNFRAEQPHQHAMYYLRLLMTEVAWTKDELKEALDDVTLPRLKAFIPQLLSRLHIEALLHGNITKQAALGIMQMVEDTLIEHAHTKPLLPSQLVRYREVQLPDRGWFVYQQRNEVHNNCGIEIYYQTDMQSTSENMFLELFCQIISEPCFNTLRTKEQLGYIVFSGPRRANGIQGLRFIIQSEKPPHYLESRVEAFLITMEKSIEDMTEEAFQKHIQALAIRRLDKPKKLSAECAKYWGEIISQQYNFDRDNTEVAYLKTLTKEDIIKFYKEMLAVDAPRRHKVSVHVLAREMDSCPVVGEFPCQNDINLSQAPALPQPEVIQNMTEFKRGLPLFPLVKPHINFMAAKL

[2] = molecular target: T1, Insulin-degrading enzyme; assay: cellular IDE activation of Abeta substrate cleavage – fluorescence polarization, HEK cells, dose response (AID 588439); format: functional, cell-based
[3] = tested on: HEK293; assay: membrane integrity loss in HEK cells – cell-based, fluorescence, cytotoxicity control for IDE activator project, dose response (AID 588440); format: functional; settings: Homo sapiens;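 also: cytotoxicity by LDH release measuring loss of membrane integrity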
[4] = tested on: HEK293; assay: optical interference in Abeta FP readout, dose response, artefact control for IDE activator project, biochemical, fluorescence polarization (AID 588442); format: functional, cell-based; settings: Homo sapiens
[5] = molecular target: T2, Caspase-3 (Homo sapiens, UniProt P42574); assay: inhibition of recombinant caspase-3 activity – biochemical, luminescence, set 2, selectivity assay for SENP protease inhibitor project, SAR follow-up (AID 588599); format: functional
T2 sequence (P42574 whole entry): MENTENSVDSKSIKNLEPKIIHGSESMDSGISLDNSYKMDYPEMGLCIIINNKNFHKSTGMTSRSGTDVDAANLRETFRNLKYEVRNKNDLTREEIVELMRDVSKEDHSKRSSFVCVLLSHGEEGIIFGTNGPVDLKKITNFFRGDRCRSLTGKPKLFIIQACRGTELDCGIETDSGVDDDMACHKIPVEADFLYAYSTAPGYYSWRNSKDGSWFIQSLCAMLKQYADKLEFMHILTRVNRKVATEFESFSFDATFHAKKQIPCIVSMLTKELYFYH

[6] = molecular target: T3, Sentrin-specific protease 8 (Homo sapiens, UniProt Q96LD8); assay: inhibition of sentrin protease 8 – biochemical, luminescence, set 2, SAR follow-up (AID 588601); format: functional
T3 sequence (Q96LD8 whole entry): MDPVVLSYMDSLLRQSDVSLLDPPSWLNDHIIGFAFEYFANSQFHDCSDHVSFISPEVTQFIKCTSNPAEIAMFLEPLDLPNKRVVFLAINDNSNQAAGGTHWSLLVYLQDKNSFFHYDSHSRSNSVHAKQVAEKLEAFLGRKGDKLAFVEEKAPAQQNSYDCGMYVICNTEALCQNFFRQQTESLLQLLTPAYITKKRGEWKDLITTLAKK

[7] = molecular target: T4, Sentrin-specific protease 7 (Homo sapiens, UniProt Q9BQF6); assay: inhibition of human SENP7 cleavage activity – biochemical, luminescence, set 2, SAR follow-up (AID 588600); format: functional
T4 sequence (Q9BQF6 whole entry): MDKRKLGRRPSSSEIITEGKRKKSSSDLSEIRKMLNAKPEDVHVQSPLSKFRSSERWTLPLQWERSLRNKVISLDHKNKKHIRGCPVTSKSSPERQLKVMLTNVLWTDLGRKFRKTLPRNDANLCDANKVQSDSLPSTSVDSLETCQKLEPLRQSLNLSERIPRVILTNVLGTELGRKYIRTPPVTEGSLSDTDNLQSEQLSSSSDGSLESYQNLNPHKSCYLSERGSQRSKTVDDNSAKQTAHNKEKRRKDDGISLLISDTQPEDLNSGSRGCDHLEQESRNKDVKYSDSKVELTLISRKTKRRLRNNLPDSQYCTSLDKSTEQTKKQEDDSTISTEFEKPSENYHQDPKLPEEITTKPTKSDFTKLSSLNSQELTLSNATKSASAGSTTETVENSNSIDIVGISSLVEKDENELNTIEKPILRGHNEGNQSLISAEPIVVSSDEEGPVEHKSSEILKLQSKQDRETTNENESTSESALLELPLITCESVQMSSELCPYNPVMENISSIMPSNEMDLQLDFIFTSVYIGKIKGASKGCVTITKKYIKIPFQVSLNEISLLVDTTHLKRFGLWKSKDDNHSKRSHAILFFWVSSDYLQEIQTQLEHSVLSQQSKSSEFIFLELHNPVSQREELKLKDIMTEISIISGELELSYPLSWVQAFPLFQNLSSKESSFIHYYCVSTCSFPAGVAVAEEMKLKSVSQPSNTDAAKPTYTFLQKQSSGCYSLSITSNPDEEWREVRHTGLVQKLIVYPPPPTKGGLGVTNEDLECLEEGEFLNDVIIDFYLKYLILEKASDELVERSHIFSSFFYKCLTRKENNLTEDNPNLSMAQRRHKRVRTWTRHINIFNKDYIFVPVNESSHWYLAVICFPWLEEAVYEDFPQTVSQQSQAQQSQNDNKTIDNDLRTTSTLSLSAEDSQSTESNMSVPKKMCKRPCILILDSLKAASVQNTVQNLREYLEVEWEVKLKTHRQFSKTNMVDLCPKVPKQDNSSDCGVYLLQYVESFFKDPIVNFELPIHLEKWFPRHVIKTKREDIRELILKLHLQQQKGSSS

[8] = molecular target: T5, Sentrin-specific protease 6 (Homo sapiens, UniProt Q9GZR1); assay: inhibition of human SENP6 catalytic domain – biochemical, luminescence, set 2, SAR follow-up (AID 588598); format: functional
T5 sequence (Q9GZR1 whole entry): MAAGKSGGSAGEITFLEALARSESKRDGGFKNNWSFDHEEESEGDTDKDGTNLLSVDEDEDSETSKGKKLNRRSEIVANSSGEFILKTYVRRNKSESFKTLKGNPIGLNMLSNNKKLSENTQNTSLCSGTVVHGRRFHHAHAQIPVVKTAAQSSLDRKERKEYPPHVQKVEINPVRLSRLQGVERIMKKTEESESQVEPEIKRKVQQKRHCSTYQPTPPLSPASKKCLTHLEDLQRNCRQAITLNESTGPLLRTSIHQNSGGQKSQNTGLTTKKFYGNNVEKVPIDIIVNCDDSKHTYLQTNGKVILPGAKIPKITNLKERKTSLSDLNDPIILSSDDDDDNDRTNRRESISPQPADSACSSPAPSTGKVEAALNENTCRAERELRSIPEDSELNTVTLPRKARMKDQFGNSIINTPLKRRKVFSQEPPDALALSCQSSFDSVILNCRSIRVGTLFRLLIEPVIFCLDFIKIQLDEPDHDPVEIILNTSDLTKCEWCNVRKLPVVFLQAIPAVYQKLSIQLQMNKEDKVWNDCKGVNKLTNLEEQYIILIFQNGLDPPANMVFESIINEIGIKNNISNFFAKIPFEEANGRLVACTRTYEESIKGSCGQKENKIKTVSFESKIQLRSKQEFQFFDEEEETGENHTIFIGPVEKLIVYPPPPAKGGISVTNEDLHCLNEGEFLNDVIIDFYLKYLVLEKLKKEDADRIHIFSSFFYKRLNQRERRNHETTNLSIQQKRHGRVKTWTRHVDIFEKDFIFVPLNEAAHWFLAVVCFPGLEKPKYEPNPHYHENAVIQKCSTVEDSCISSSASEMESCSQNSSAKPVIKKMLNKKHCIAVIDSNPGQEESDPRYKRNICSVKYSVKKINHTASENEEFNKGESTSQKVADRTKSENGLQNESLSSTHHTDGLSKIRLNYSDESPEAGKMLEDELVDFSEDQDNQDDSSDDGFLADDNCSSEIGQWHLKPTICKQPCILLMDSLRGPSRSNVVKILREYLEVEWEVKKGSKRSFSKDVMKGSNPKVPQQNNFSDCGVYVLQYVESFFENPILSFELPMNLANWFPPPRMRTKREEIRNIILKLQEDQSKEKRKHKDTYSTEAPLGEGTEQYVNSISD

[9] = molecular target: T3, Sentrin-specific protease 8; assay: inhibition of human SENP8 cleavage activity – biochemical, luminescence, SAR follow-up (AID 504501); format: functional
[10] = molecular target: T2, Caspase-3; assay: SAR Analysis of small molecule inhibitors of Sentrin-specific proteases (SENPs) using a Caspase-3 Selectivity assay. [Related pubchem assays (depositor defined):AID2540, AID2599, AID434973, AID489001]; format: functional
[11] = molecular target: T5, Sentrin-specific protease 6; assay: SAR Analysis of small molecule inhibitors of Sentrin-specific protease 6 (SENP6) using a Luminescent assay. [Related pubchem assays (depositor defined):AID2582, AID2599]; format: functional
[12] = molecular target: T4, Sentrin-specific protease 7; assay: inhibition of human SENP7 cleavage activity – biochemical, luminescence, SAR follow-up (AID 504497); format: functional
[13] = molecular target: DNA dC->dU-editing enzyme APOBEC-3G (Homo sapiens, UniProt Q9HC16); assay: inhibition of APOBEC3G ssDNA deamination – biochemical, fluorescence, single-stranded DNA substrate, SAR follow-up (AID 602136); format: functional; settings: read-out: IC50_Mean
Sequence of DNA dC->dU-editing enzyme APOBEC-3G (Q9HC16 whole entry): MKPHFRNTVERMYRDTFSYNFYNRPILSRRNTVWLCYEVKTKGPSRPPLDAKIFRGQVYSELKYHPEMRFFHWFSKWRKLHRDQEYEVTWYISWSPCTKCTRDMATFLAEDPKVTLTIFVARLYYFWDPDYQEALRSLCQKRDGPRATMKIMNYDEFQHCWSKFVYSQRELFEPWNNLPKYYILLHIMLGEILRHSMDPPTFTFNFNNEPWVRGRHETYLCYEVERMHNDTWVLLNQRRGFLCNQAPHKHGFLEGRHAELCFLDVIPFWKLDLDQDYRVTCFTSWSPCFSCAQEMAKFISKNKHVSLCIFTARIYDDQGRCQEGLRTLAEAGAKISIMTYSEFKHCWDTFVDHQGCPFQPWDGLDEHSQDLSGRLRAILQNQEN

[14] = molecular target: DNA dC->dU-editing enzyme APOBEC-3A (Homo sapiens, UniProt P31941); assay: SAR analysis of small molecule inhibitors of APOBEC3A DNA Deaminase via a fluorescence-based single-stranded DNA deaminase assay.; format: functional; settings: read-out: IC50_Mean
Sequence of DNA dC->dU-editing enzyme APOBEC-3A (P31941 whole entry): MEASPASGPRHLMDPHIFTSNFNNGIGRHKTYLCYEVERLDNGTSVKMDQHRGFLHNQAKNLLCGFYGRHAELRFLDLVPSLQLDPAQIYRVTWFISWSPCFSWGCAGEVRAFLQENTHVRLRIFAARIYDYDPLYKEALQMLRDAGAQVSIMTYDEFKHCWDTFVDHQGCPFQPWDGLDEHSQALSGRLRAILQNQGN

[15] = molecular target: Cytochrome P450 2C19 (Homo sapiens, UniProt P33261); assay: Cytochrome panel assay with activity outcomes. Panel member name: p450-cyp2c19 Compounds with AC50 equal or less than 10 uM are considered active; format: functional; settings: read-out: AC50
Sequence of Cytochrome P450 2C19 (P33261 whole entry): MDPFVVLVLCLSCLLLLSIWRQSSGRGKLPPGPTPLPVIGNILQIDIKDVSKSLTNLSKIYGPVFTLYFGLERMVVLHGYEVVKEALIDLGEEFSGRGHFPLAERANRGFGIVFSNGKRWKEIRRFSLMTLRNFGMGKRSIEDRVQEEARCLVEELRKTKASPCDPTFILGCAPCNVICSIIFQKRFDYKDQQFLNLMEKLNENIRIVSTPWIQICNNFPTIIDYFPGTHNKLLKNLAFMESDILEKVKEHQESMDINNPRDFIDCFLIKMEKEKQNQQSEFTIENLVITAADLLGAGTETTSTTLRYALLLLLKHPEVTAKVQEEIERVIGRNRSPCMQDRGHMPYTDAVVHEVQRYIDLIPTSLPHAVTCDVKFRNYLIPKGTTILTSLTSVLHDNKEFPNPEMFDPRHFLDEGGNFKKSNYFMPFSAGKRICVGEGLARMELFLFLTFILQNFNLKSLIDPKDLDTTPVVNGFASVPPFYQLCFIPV

[16] = molecular target: Cytochrome P450 2D6 (Homo sapiens, UniProt P10635);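 also: CYP2D6 member of a cytochrome P450 panel assay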
Sequence of Cytochrome P450 2D6 (P10635 whole entry): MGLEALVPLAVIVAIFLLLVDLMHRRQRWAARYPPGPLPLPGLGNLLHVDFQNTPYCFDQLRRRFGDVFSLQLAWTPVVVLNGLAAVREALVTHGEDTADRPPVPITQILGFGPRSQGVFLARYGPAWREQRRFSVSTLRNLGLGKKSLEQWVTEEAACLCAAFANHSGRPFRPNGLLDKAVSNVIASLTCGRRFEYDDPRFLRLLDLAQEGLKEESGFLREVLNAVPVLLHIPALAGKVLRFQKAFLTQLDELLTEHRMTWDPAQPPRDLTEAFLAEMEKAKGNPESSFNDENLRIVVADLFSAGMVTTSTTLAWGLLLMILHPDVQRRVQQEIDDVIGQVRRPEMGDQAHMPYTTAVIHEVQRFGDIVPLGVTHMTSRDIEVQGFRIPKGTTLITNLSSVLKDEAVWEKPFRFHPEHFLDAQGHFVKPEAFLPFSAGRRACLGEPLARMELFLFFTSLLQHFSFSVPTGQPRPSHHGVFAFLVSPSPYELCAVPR

[17] = molecular target: Cytochrome P450 2C9 (Homo sapiens, UniProt P11712)
Sequence of Cytochrome P450 2C9 (P11712 whole entry): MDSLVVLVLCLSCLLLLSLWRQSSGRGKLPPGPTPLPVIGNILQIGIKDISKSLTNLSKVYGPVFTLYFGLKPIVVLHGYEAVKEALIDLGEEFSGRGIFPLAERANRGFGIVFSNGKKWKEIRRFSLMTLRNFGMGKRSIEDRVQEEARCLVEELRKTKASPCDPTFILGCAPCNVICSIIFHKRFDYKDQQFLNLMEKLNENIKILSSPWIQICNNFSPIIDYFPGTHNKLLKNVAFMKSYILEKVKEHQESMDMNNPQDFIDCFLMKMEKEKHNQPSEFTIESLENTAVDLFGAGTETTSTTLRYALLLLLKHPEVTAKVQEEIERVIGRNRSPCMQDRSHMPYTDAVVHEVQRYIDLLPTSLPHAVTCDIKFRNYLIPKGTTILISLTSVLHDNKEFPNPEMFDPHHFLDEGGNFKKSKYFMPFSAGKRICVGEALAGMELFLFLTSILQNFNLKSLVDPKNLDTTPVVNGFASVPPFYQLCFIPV

## C1CCCCCC(=NNc2nn[nH]n2)CCCCC1
[1]
  EC50: > 54.7 µM (inactive)
[2]
  EC50: > 54.7 µM (inactive)
[3]
  IC50: > 89.2 µM (inactive)
[4]
  EC50: > 56 µM (inactive)

## CCN1CCN(CCCNC(=O)C(=O)c2c[nH]c3ccccc23)CC1
[5]
  IC50: > 99 µM (inactive)
[6]
  IC50: > 99 µM (inactive)
[7]
  IC50: > 99 µM (inactive)
[8]
  IC50: > 99 µM (inactive)

## O=C(Nc1ccc(-c2nc3ccccc3o2)cc1)c1ccc2c(c1)OCO2
[1]
  EC50: > 54.7 µM (inactive)
[2]
  EC50: > 54.7 µM (inactive)
[3]
  IC50: > 9.91 µM (active)
[4]
  EC50: > 55.9 µM (inactive)

## Cn1cccc1C(=O)Nc1nc2ccc(Cl)cc2s1
[9]
  IC50: 0.52 µM (active)
[5]
  IC50: 0.465 µM (active)
[6]
  IC50: 0.619 µM (active)
[10]
  IC50: 0.42 µM (active)
[7]
  IC50: 0.558 µM (active)
[11]
  IC50: 0.54 µM (active)
[8]
  IC50: 0.652 µM (active)
[12]
  IC50: 0.49 µM (active)

## Cc1cc(C(=O)Cn2ccccc2=O)c(C)n1Cc1ccccc1
[13]
  IC50: > 99 µM (inactive)
[14]
  IC50: > 99 µM (inactive)

## C=CCSc1nnc(-c2cc3c(C(F)(F)F)nn(C)c3s2)n1C
[15]
  AC50: 3.55 µM (inconclusive)
[13]
  IC50: 70.8 µM (inactive)
[14]
  IC50: > 99 µM (inactive)
[16]
  AC50: 17.8 µM (inconclusive)
[17]
  AC50: inconclusive
